Drawing on PubChem BioAssay (NCI), this text covers GI50 and TGI for 23 compounds.

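Assay format: 96-well plates, 48-hour exposure. The concentration for 50% growth inhibition is given as GI50. TGI: total growth inhibition.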

The subject of one experiment is NCI-H460 lung. The experiment is described as follows: NCI tumour cell line growth inhibition, 48 h.
Regarding `CN=C1NC(=O)/C(=C/c2ccc3ncccc3c2)S1`, the GI50 was 7.79 µM and the TGI was greater than 25 µM.
`O=C(O)c1cc(S(=O)(=O)N=NC=C2c3ccccc3N(O)c3ccccc32)ccc1O` gave a TGI of 33.5 µM.
Still for that read-out and setting: as for `O=c1[nH]c(=O)n(C2CC(O)C(CO)O2)cc1C#Cc1c(F)c(F)c(F)c(F)c1F` (centres undefined), the figure is greater than 100 µM.
For the compound `NS(=O)(=O)c1ccc(-n2nc(-c3ccc(Br)cc3)ccc2=O)cc1`, the GI50 is greater than 10 µM and the TGI is greater than 10 µM.
With `S=C1NCCN1C1=Nc2ccccc2CO1`, the GI50 is greater than 100 µM and the TGI is greater than 100 µM.
For `COc1ccc(/C=C(/C(=O)O)c2cc(OC)c(OC)c(OC)c2)cc1`, the TGI is greater than 100 µM.
With `COc1cc2c(cc1O)[C@H](Cc1ccc(Oc3cc(C[C@H]4c5cc(OC)c(OC)cc5CCN4C)ccc3OC)cc1)NCC2`, the TGI amounted to 27.7 µM.
Same read-out and setting: for `OCc1c(-c2cccc3ccccc23)sc(-c2cccc3ccccc23)c1CO` the value was 34.7 µM.
For `COc1ccc(-n2cc(-c3ccc(OC)c(OC)c3)[nH]c2=S)cc1Cl`, the GI50 was greater than 100 µM and the TGI was greater than 100 µM.
Turning to `Clc1cccc(NC=Nc2ccc(-c3nc4ccccc4s3)cc2)c1`, the GI50 was 9.44 µM and the TGI stood at 23.3 µM.
The compound `C[Si](C)(C)c1ccc(CC2(Cc3ccc([Si](C)(C)C)cc3)CCNC2)cc1` came in with a TGI of 3.73 µM.
Regarding `Cc1cc(C)nc(NS(=O)(=O)c2ccc(NC(=O)c3cccc4c(=O)c5ccccc5[nH]c34)cc2)n1`, the TGI stood at 36.1 µM.
Consider `Cn1cc(C2=C(c3ccc(OC[C@@H](O)CO)cc3)C(=O)NC2=O)c2ccccc21`, for which the GI50 is greater than 25 µM and the TGI was greater than 25 µM.
On to `O=C1c2ccccc2-c2c1c1cc3c(cc1c(=O)n2CCCCl)OCO3`, for which the GI50 is 97.1 µM and the TGI was greater than 100 µM.
Taken in the same sequence, the figures for `COc1nc2c(cc1S(=O)(=O)c1ccccc1)CCc1c-2cnn1-c1ccccc1Cl` were 26.3 µM and greater than 100 µM.

A further experiment has as its system SK-MEL-5 melanoma. The experiment is described as follows: NCI tumour cell line growth inhibition, 48 h.
For the compound `Cc1cccc(C(C)(C)C)c1NC(=O)C(=O)Cc1nc2ccccc2s1`, the TGI was greater than 100 µM.
For `CC(=O)OCCc1cccnc1/C=N/O`, the TGI was greater than 100 µM.
Take `CN1CCCNCCN(CCc2ccccn2)CCCN(C)CC1`: the TGI is greater than 100 µM.
Regarding `CC1=C(CCCOC(=O)NCCCl)C2=C(C)C3(CC3)[C@@](C)(O)C(=O)C2=C1`, the GI50 is 1.73 µM and the TGI worked out at 3.35 µM.
The compound `C[C@]12CCC(=O)C=C1CC[C@@H]1C2CC[C@]2(C)NC(=O)C(C#N)CC12` (some centres undefined) registered a TGI greater than 100 µM.
As for `CN=C1NC(=O)/C(=C/c2ccc3ncccc3c2)S1`, the GI50 was 7.44 µM and the TGI is greater than 20.1 µM.
For `CC1=C[C@@H]2Cc3occc3C(C)(C)[C@@H]2CC1`, the TGI was found to be 33.1 µM.
`O=C(O)c1cc(S(=O)(=O)N=NC=C2c3ccccc3N(O)c3ccccc32)ccc1O` came in with a TGI of 32.3 µM.
For `O=c1[nH]c(=O)n(C2CC(O)C(CO)O2)cc1C#Cc1c(F)c(F)c(F)c(F)c1F` (centres undefined), the TGI is greater than 100 µM.
The same measure, in the same setting: as for `O=S(=O)(O)C(O)/C=C/c1ccccc1` (centres undefined), the figure is greater than 100 µM.
Turning to `NS(=O)(=O)c1ccc(-n2nc(-c3ccc(Br)cc3)ccc2=O)cc1`, the GI50 was greater than 10 µM and the TGI is greater than 10 µM.
For the compound `S=C1NCCN1C1=Nc2ccccc2CO1`, the GI50 was 41.7 µM and the TGI worked out at 99.4 µM.
As to `COc1ccc(/C=C(/C(=O)O)c2cc(OC)c(OC)c(OC)c2)cc1`, the TGI was greater than 100 µM.
The same measure, in the same setting: as for `OCc1c(-c2cccc3ccccc23)sc(-c2cccc3ccccc23)c1CO`, the figure is 23.6 µM.
As for `COc1ccc(-n2cc(-c3ccc(OC)c(OC)c3)[nH]c2=S)cc1Cl`, the GI50 is greater than 100 µM and the TGI was greater than 100 µM.
As to `Clc1cccc(NC=Nc2ccc(-c3nc4ccccc4s3)cc2)c1`, the GI50 is 10.5 µM and the TGI was 21.6 µM.
`C[Si](C)(C)c1ccc(CC2(Cc3ccc([Si](C)(C)C)cc3)CCNC2)cc1` gave a TGI of 3.35 µM.
In the case of `Cc1cc(C)nc(NS(=O)(=O)c2ccc(NC(=O)c3cccc4c(=O)c5ccccc5[nH]c34)cc2)n1`, the TGI came to 24 µM.
On to `Cn1cc(C2=C(c3ccc(OC[C@@H](O)CO)cc3)C(=O)NC2=O)c2ccccc21`, for which the GI50 is greater than 25 µM and the TGI is greater than 25 µM.
Turning to `O=C1c2ccccc2-c2c1c1cc3c(cc1c(=O)n2CCCCl)OCO3`, the GI50 is 33.5 µM and the TGI is greater than 100 µM.
Taken in the same sequence, the figures for `COc1nc2c(cc1S(=O)(=O)c1ccccc1)CCc1c-2cnn1-c1ccccc1Cl` were 3.31 µM and greater than 100 µM.

The test system of another experiment is EKVX NSCLC. The experiment is described as follows: NCI tumour cell line growth inhibition, 48 h.
Take `Cc1cccc(C(C)(C)C)c1NC(=O)C(=O)Cc1nc2ccccc2s1`: the TGI is greater than 100 µM.
`CC(=O)OCCc1cccnc1/C=N/O` displayed a TGI greater than 100 µM.
Same read-out and setting: for `CCC1CCC2CCCC(C)N12` (centres undefined) the value was greater than 100 µM.
In the case of `CN1CCCNCCN(CCc2ccccn2)CCCN(C)CC1`, the TGI is greater than 100 µM.
Regarding `CC1=C(CCCOC(=O)NCCCl)C2=C(C)C3(CC3)[C@@](C)(O)C(=O)C2=C1`, the GI50 was 3.45 µM and the TGI was greater than 100 µM.
Compound `CC1=C[C@@H]2Cc3occc3C(C)(C)[C@@H]2CC1` displayed a TGI of 33 µM.
Regarding `O=C(O)c1cc(S(=O)(=O)N=NC=C2c3ccccc3N(O)c3ccccc32)ccc1O`, the TGI is greater than 100 µM.
Still for that read-out and setting: for `O=c1[nH]c(=O)n(C2CC(O)C(CO)O2)cc1C#Cc1c(F)c(F)c(F)c(F)c1F` (centres undefined) the value was greater than 100 µM; for `O=S(=O)(O)C(O)/C=C/c1ccccc1` (centres undefined), greater than 100 µM.
In the case of `S=C1NCCN1C1=Nc2ccccc2CO1`, the GI50 was 93.6 µM and the TGI is greater than 100 µM.
On to `COc1ccc(/C=C(/C(=O)O)c2cc(OC)c(OC)c(OC)c2)cc1`, for which the TGI was greater than 100 µM.
In turn, `OCc1c(-c2cccc3ccccc23)sc(-c2cccc3ccccc23)c1CO` showed a TGI of 25 µM.
Regarding `COc1ccc(-n2cc(-c3ccc(OC)c(OC)c3)[nH]c2=S)cc1Cl`, the GI50 is 41.5 µM and the TGI is greater than 100 µM.
